Patent US20040152735A1, “NO-synthase inhibitors comprising N,N'-bis(2-pyridyl)methyl-N,N'-bis(3,4,5-trimethoxybenzyl) ethylenediamine” (SOCIETE L'OREAL, S.A., priority 2001, published 2004)

Biological target: T1, inducible NO-synthase (NO-synthase 2) (Homo sapiens, UniProt P35228)
T1 construct: positive control (induction of the enzyme): mixtures of interferon-(1000 U/ml) and of interleukin 1-(100 U/ml); endogenous in cells; 267(30), 21277-21280, 1992
Assay: Inhibition of inducible NO-synthase (test of Heck et al.): nitrite/nitrate measured after stimulating NO-synthase 2 with interferon and interleukin 1
Format: cell-based
Protocol: The activity of N,N′-bis(2-pyridyl)methyl-N,N′-bis(3,4,5-trimethoxybenzyl)ethylenediamine on inducible NO-synthase was evaluated in the test described by Heck et al., (J.B.C., Vol. 267, No. 30, 21277-21280, Oct. 25, 1992).
The object of this test is to show the reduction in the concentration of nitrate and nitrite, ultimately, after stimulating NO-synthase 2.
The following controls were introduced into the tests:
A: positive control (induction of the enzyme): mixtures of interferon-(1000 U/ml) and of interleukin 1-(100 U/ml);
To determine the activity of the test product, the amount of stable NO reaction products (nitrites and nitrates) is measured using the “nitric calorimetric assay” kit marketed by Boehringer under the reference 1756.28.
N,N′-bis(2-pyridyl)methyl-N,N′-bis(3,4,5-trimethoxybenzyl) ethylenediamine was tested at concentrations of 10 μM, 50 μM and 100 μM in ethanol.

T1 sequence (P35228 whole entry, species assumed): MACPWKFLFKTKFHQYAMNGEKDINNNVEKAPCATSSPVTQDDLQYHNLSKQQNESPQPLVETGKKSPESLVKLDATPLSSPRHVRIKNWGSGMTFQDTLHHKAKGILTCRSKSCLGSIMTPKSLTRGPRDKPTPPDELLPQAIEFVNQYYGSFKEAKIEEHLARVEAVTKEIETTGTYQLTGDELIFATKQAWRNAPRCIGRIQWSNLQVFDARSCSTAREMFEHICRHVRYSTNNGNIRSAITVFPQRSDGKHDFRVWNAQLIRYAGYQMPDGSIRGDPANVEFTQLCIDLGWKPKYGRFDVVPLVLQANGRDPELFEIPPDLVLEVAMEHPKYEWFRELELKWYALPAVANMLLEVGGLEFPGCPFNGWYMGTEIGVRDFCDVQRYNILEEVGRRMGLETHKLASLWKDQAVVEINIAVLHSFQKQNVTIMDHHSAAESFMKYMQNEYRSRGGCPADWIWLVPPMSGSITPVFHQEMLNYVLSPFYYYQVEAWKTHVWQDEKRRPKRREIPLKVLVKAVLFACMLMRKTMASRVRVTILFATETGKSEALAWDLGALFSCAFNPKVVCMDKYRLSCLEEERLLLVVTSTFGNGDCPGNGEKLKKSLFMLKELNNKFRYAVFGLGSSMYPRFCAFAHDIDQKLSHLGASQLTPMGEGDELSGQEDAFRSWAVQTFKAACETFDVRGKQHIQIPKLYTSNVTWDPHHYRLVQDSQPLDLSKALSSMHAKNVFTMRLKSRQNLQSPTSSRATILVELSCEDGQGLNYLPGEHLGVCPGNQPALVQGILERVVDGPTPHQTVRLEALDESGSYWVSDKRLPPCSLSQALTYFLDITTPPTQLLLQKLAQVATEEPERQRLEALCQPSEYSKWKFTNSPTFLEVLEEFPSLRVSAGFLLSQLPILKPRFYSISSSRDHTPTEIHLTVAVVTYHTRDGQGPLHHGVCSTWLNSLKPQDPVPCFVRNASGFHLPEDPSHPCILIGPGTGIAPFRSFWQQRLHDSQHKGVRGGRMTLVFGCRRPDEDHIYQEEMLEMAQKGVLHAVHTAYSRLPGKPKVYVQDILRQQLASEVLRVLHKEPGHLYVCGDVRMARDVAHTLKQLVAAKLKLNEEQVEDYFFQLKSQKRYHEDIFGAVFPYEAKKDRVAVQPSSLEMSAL

inhibition at 10 µM (10 μM in ethanol, nitrites and nitrates after induction with interferon (1000 U/ml) and interleukin 1 (100 U/ml)): 18.8%
inhibition at 50 µM (50 μM in ethanol, nitrites and nitrates after induction with interferon (1000 U/ml) and interleukin 1 (100 U/ml)): 48.3%
inhibition at 100 µM (100 μM in ethanol, nitrites and nitrates after induction with interferon (1000 U/ml) and interleukin 1 (100 U/ml)): 62%
SMILES: COc1cc(CN(CCN(Cc2cc(OC)c(OC)c(OC)c2)Cc2ccccn2)Cc2ccccn2)cc(OC)c1OC [N,N′-bis(2-pyridyl)methyl-N,N′-bis(3,4,5-trimethoxybenzyl)ethylenediamine]
effect on inducible NO-synthase (in words) (conclusion from the test at 10-100 μM): has an inhibitory effect on inducible NO-synthase
